{"source": "patent US10905782B2", "about": "“Compositions for enhancing transport of molecules into cells” (priority 2003, dated 2021)", "key": {"[1]": {"system": "705 splice site (luciferase gene interrupted by a human β-globin intron mutated at nucleotide 705)", "assay": "pLuc/705 splice correction assay: luciferase production in HeLa pLuc/705 cells", "assay_type": "cell-based", "settings": "splice-correction assay monitored over time", "experimental": "The data described below was obtained by targeting a β-globin splice correction sequence fused to luciferase.\nOther cell lines were obtained from ATCC (Manassas, Va.). […] All assays were carried out with exponentially growing cells in culture media containing 10% fetal bovine serum (FBS) unless otherwise specified.\nThis assay measures the ability of steric blocking oligomers to enter cells and nuclei, block incorrect splicing of pre-mRNA, and thus cause expression of a reporter gene. It avoids the confusion of cytotoxicity with activity that can affect down-regulation assays, as cells must be able to carry out RNA processing and translation to produce a signal. Because oligomers must enter cells and cell nuclei to produce a signal in the assay, it is very useful for measuring uptake and effectiveness of delivery moieties.\nThe time course of the uptake of various transporter-PMO-fluorescein conjugates, as described above, in HeLa pLuc/705 cells was studied by fluorescence spectroscopy. Experiments were generally run in triplicate. According to the general procedure, culture medium containing the test substance at a specified concentration was added to HeLa pLuc/705 cells plated in a 48-well plate. After incubation, at each time point, the cells were washed with PBS three times, and the cell lysate was collected as described under “Fluorometry”, above. The amount of functional luciferase produced was determined by mixing 30 μl of cell lysate and 50 μl of Luciferase Assay Reagent (LAR) (Promega, Wis.) and measuring the light production using a Flx 800 microplate fluorescence/luminescence reader (Bio-tek, Vermont). The relative light units were normalized to μg of protein determined by the bicinchoninic acid (BCA) method, following the manufacturer's procedure (Pierce, Ill.)."}, "[2]": {"system": "HeLa pLuc705 derived from HeLa S3, HeLa, NIH3T3, and Jurkat", "assay": "Cellular uptake by fluorescent microscopy in live cells", "assay_type": "cell-based", "experimental": "HeLa pLuc/705 (Kang, Cho et al. 1998) is a HeLa S3 cell line stably transfected with a plasmid carrying the luciferase coding sequence interrupted by a mutated human β-globin intron 2 (Gene Tools, Philomath, Oreg.). Other cell lines were obtained from ATCC (Manassas, Va.). The PMO's were 3′-labeled with fluorescein as described in Example 1. To avoid artifacts, all fluorescent images were taken from live cells, and no fixative agent or mounting media were used.\nCells were plated onto a 48-well plate. The next day the conditioned medium was removed and the test substances in fresh medium were added to the wells. After incubation, the cells were washed with phosphate-buffered saline (PBS) three times and visualized directly in the culture medium with a Nikon Diaphot 300 inverted microscope. Images were captured with an Olympus digital camera connected to a computer using MagnaFire software (Optronics, Goleta, Calif.)."}, "[3]": {"system": "HeLa pLuc705 cells", "assay": "Fluorometry: association (adsorption) of fluorescein-labeled conjugate with cells", "assay_type": "cell-based, human", "experimental": "HeLa pLuc/705 cells plated in a 48 well plate were treated with medium containing test substance. After incubation, cells were washed with PBS three times.\nTo measure the sum of membrane-bound and internalized fluorescence, cells were lysed directly in the wells by addition of 100 μl of cell lysis buffer (Promega, Madison, Wis.) to each well. Cell lysates were collected. The total fluorescence was determined by mixing 20 μl of cell lysate and 80 μl of 0.1 M Na2CO3 (pH 11) and measuring with an Flx 800 microplate fluorescence-luminescence reader with excitation at 485 nm and emission at 524 nm.\nTo measure internalized conjugate, the membrane-bound conjugate was removed by trypsinization, as follows. Trypsin (100 μl, 10%, Hyclone, Logan, Utah) was added to each well and incubated for 6 minutes at 37° C., followed by addition of 300 μl of culture media. The cells were spun down and washed with PBS, then lysed with 100 μl cell lysis buffer. The fluorescence of the cell lysate was measured as described above."}, "[4]": {"system": "trypsin", "assay": "Degradation of conjugate by trypsin", "assay_type": "in vitro ADME", "settings": "data not shown"}}, "data": [{"substance": "R9F2C-PMO: covalent conjugate of PMO 705 and transport peptide R9F2 via cysteine; fluorescein-labeled in uptake studies (chain RRRRRRRRRFFC; antisense cctcttacctcagttaca; cysteine linkage; PMO; fluorescein; synthetic transport peptide; synthetic oligomer)", "values": [{"measurement": "incubation time after which luciferase was produced", "setting": "[1]", "value": 120, "unit": "min"}, {"measurement": "pattern of fluorescence", "setting": "[2]; HeLa S3 cells", "value": "less intense cytosolic diffuse fluorescence"}, {"measurement": "pattern of fluorescence", "setting": "[2]; HeLa cells", "value": "mostly diffused fluorescence"}, {"measurement": "location of fluorescence in cells", "setting": "[2]; HeLa, NIH3T3 or HeLa pLuc/705 cells, 20 minutes treatment, DHE nuclear stain", "value": "Diffuse green fluorescence was seen in both cytoplasm and nucleus"}, {"measurement": "pattern of fluorescence", "setting": "[2]; Jurkat cells", "value": "lowest level of fluorescence"}, {"measurement": "pattern of fluorescence", "setting": "[2]; NIH3T3 cells", "value": "very bright and diffused cytosolic and nuclear fluorescence"}, {"measurement": "cells in which fluorescence was observed", "setting": "[2]; all four cell lines, live cells", "value": 100, "unit": "%"}, {"measurement": "fluorescence of cells incubated at 37° C. compared with 17° C.", "setting": "[3]; 0.1 to 5 μM, 70 minutes", "value": "similar"}, {"measurement": "time at which cell fluorescence reached maximum intensity", "setting": "[3]; HeLa pLuc705 cells, 1 μM, 900 minute study period", "value": "30 to 45", "unit": "min"}, {"measurement": "adsorption with increasing concentration", "setting": "[3]; increase between 0.1-1 μM, not between 1-5 μM", "value": "saturable"}, {"measurement": "sensitivity to degradation by trypsin", "setting": "[4]", "value": "sensitive to degradation by trypsin"}]}]}
